Here are results for five compounds from US9101679B2, “Sterilization method and apparatus” (TS03 Inc., priority 2009, dated 2015).

The subject of assay [1] is spores. To be noted: 3.4 mL per pulse; half-cycle of Cycle 1; Teflon 1 mm x 80 cm.
Method: In order to inject a high volume at once, a valve separated by Teflon tubing was used instead of the normally used microvalve (TSO3 #: AM-213-001). The tubing length was determined by the volume to be injected. Since the volume contained in the valve is significant, two sizes of valves were used. The first type (TSO3 #: CM-900-157) with an orifice of 0.062″, was used for a volume up to 1.5 mL. The second Neptune type, with an orifice of 0.156″, (TSO3 #: CM-900-156), was used for a volume up to 3.5 mL. The larger valve size also helps to push the large liquid volume into the chamber. For the 35 μL volume, a Burket 7616 micropump (TSO3 #: CM-113-001) was used. For the 23 μL volume, a larger, specially-made block was used.
Two cycles were used for this experiment. To test the sterility, Cycle 1 (half-cycle) was used, where the injection step of the conditioning phase was modified with a variation in volume and pulse for each attempt, as previously described. As for the condensation effect, Cycle 3, consisting of four phases, was utilized. This cycle was chosen due to the fact that a greater quantity of hydrogen peroxide was injected for the cycle, making it the worst case scenario. […] After exposure to a half-cycle of Cycle 1, the sterility of each lumen was determined according to MCB-09-A04 rev. 7 by quantitative recovery using the ultrasound technique followed by filtration. […]
For assay [2], the system named is spores. Description: Sterilization by evaporated hydrogen peroxide solution alone or followed by ozone. The assay is classed as cell-based. The source says:
Indeed the evaporated hydrogen peroxide solution injected into the chamber is not sufficient to achieve sterilization, although a 4 log reduction in spores has been observed. […] Such complete sterilization could not be achieved using only the injection of evaporated hydrogen peroxide solution, independent of the amount of hydrogen peroxide solution used and the concentration of the solution. Moreover, high concentrations of hydrogen peroxide reduce compatibility with some instruments. […] In fact the dwelling time after hydrogen peroxide injection appears to have no effect on sterilization efficacy.

The test system of assay [3] is G. stearothermophilus ATCC 7953 spores. Nature of the assay: Sterile efficacy on inoculated lumens, half-cycle of each TSO3 cycle. The assay is classed as cell-based. The note with it: for sterility result in words, gas replacing ozone after hydrogen peroxide injection: all three cycles, gas injected after hydrogen peroxide. An excerpt:
The test evaluated the sterile efficacy on inoculated devices. Inoculated wires were inserted in tubing and afterwards in pouches. The pouches were also placed at the top of the loading carriage in the sterilization chamber.
The same loads were used for the three series of tests performed: ozone, oxygen and nitric oxide. The length, diameter, material and type of tubing were different for each cycle and are described in Table 3. The inoculated lumens were placed in a special load representing an average load for the three cycles.
The lumens used to evaluate the sterile efficacy were inoculated according to protocol MCB-09-A07 rev 9. The wire method was used. The wires were inoculated with 10 μL of a G. stearothermophilus ATCC 7953 spores suspension of 1.0×10^6 to 2.5×10^6 UFC/10 μL. The inoculated wires were left to dry overnight at normal room conditions.
Test loads were exposed to a half-cycle of each cycle. For the experiment with oxygen and nitrogen oxide, ozone was replaced by the gas to be tested. A burette was also plugged on the valve system in order to precisely determine the H2O2 injected volume.
The baseline of sterile efficacy on the inoculated lumens used in each cycle was established using only hydrogen peroxide. Cycles using hydrogen peroxide and ozone were performed to compare the efficacy of oxygen and nitrogen oxide to ozone.
The oxygen was injected in the chamber using the same system as that used for ozone. The ozone generator was turned off.
The NO was injected however directly in the chamber from an independent NO cylinder (Praxair). […] By doing so, the gas was forced into the chamber.
All tests were performed outside in order to limit possible dangers from accidental leaks. A NO detector was used. A long tube was plugged into the catalyst converter unit, to allow the NO to be eliminated far from the set-up. A calculation was performed (see below) to determine the number of valve injections necessary to obtain a concentration of 2 mg/L. • Valve volume: 3.3 mL (Volume calculated in R-1937) • NO Density NTP: 1.25 g/L • Sterilisation chamber volume: 125 L • Finale concentration desired: 2 mg/L • NO Pressure: 3 psig • Corrected volume: 3300×((14.7+3)/14.7)=3973.2 μL • Mass to be injected: 0.002 g/L×125 L=0.25 gno • Masse injected by each injection: 1.25 g/L×0.003974 L=4.9665×10^−3 g/injection • Number of injections required: 0.25 gno/4.9665×10^−3 g/injection=50 injections

For assay [4], the system named is spores of G. stearothermophilus. Nature of the assay: Estimate of spores inactivated by NO / NO2 alone. The assay is classed as cell-based. How it is done: In this experiment, the amount of NO injected was 2 mg/L. Considering that all NO molecules were transformed in NO2, a D-value of 1.9 minutes for a concentration of 2 mg/L of NO2, only 2.5 log of spores would have been inactivated by the NO2. This less than the 6 log present on the inoculated devices. In reality, the conversion rate of NO in NO2 is probably not 100%, and the D-value is more than 1.9 minutes. Thus the number of spores inactivated by NO only is probably more around 1 log.

Assay [5] shares this test system. The note with it: cited from earlier work.

Entries after “also recorded” stand apart in the source; their conditions may differ. Where two headings read alike, the source gives them in different places.

As to `OO` [H2O2, hydrogen peroxide], in the assay with spores [1], the spore count entry was “zero”. Further, the reduction in spores in the assay with spores [2] (evaporated hydrogen peroxide solution only, no ozone) stood at 4 log. Also, in assay [3] (half-cycle of Cycle 1, Teflon lumen 1 mm x 80 cm, O3 or O2 2 mg/L, NO 2 mg/L), the “Sterile lumens Cycle 1” value is given as 50%. Also, the “Sterile lumens Cycle 2” value in assay [3] (half-cycle of Cycle 2, stainless steel lumen 1 mm x 50 cm, O3 or O2 10 mg/L, NO 2 mg/L) is 12.5%. Besides, the “Sterile lumens Cycle 3” value in assay [3] (half-cycle of Cycle 3, Teflon lumen 1 mm x 110 cm, O3 or O2 3 mg/L, NO 2 mg/L) was 16%.
`[O]N=O` [NO2, nitrogen dioxide]: the “spores inactivated by the NO2” value in assay [4] (assuming all NO (2 mg/L) transformed into NO2 and a D-value of 1.9 minutes) is 2.5 log. For the same compound, the D-value entry in assay [5] (3 mg/L) was “approximately 1.9 minutes”; in assay [5] (5.12 mg/L NO2), 0.3 min.
For `O=O` [oxygen], the “sterility result in words, gas replacing ozone after hydrogen peroxide injection” value in assay [3] is “ineffective to replace ozone; also recorded: Sterility was not achieved in two of the three cycles”.
With `O=[O+][O-]` [ozone], the “sterilization result in words” value in the assay with spores [2] (1-10 mg of ozone per liter of sterilization atmosphere added after evaporated hydrogen peroxide, SAL 10^-6) was “full and complete sterilization”.
Nitrogen monoxide: the “spores inactivated by NO only” value in assay [4] (2 mg/L NO, conversion to NO2 probably not 100%) is on record as “around 1 log”. In addition, the “sterility result in words, gas replacing ozone after hydrogen peroxide injection” value in assay [3] is “complete sterility in all three cycles”.
